Test results: patent publication US7709643B2, “Synthesis of sodium narcistatin and related compounds” (Arizona Board of Regents, a body corporate of the State of …, priority 2005, dated 2010)
≈ marks a conversion by molar mass, not a printed value.

What was measured:
[1] = Aqueous solubility at 25° C.; assay type: physicochemical
BXPC-3 = experiment: Human cancer cell line minipanel, Pancreas-a BXPC-3; assay type: cell-based
Protocol: (§1) The cyclic phosphate prodrugs, along with the parent compounds were evaluated against a minipanel of human cancer cell lines and murine P388 lymphocytic leukemia.

MCF-7 = experiment: Human cancer cell line minipanel, Breast MCF-7; assay type: cell-based
Protocol: as §1

SF268 = experiment: Human cancer cell line minipanel, CNS SF268; assay type: cell-based
Protocol: as §1

NCI-H460 = experiment: Human cancer cell line minipanel, Lung-NSC NCI-H460; assay type: cell-based
Protocol: as §1

KM20L2 = experiment: Human cancer cell line minipanel, Colon KM20L2; assay type: cell-based
Protocol: as §1

DU-145 = experiment: Human cancer cell line minipanel, Prostate DU-145; assay type: cell-based
Protocol: as §1

[2] = tested on: minipanel of human cancer cell lines and murine P388 lymphocytic leukemia; experiment: Minipanel of human cancer cell lines and murine P388 lymphocytic leukemia (summary in words); assay type: cell-based; conditions: summary of the cancer cell line evaluations of Table 2
Protocol: as §1
The corresponding 3,5-cyclic phosphates were less inhibitory under the experimental conditions employed. However, cleavage of the phosphate groups is expected to be very effective in vivo and such anticancer evaluations are now underway as part of the further preclinical development of these new anticancer drug candidates. (Pettit, G. R., et al., J. Nat. Prod. 2003, 66, 92-96.), (Dowlati, A., et al., Cancer Research 2002, 62, 3408-3416.), (Dziba, J. M., et al., Thyroid 2002, 12, 1063-1070.), (Eikesdal, H. P., et al., Cancer Lett. 2002, 178, 209-217.), (Prise, V., et al., Int. J. Oncology 2002, 21, 717-726.), (Hill, S. A., et al., Int. J. Cancer 2002, 102, 70-74.)

[3] = tested on: NCI panel of cancer cell lines; conditions: J. Nat. Prod. 56:1682-1687, 1993; cited from earlier work
RNA viruses = conditions: J. Nat. Prod. 55:1569-1581; 1992; cited from earlier work

O=C1N[C@H]2[C@H](O)[C@H](O)[C@@H](O)C[C@@H]2c2cc3c(c(O)c21)OCO3 (relative stereo) [1a, trans-dihydronarciclasine]
Aqueous Solubility 25° C. [1]: <1 mg/mL | GI50 Pancreas-a BXPC-3 (BXPC-3): 0.012 µg/mL (≈ 0.0388 µM) | GI50 Breast MCF-7 (MCF-7): 0.0053 µg/mL (≈ 0.0171 µM) | GI50 CNS SF268 (SF268): 0.020 µg/mL (≈ 0.0647 µM) | GI50 Lung-NSC NCI-H460 (NCI-H460): 0.0092 µg/mL (≈ 0.0297 µM) | GI50 Colon KM20L2 (KM20L2): 0.015 µg/mL (≈ 0.0485 µM) | GI50 Prostate DU-145 (DU-145): 0.0066 µg/mL (≈ 0.0213 µM) | cancer cell growth inhibitory activity (in words) [2]: strong cancer cell growth inhibitory activity | GI50 [3]: 12.6 nM | activity against a range of RNA viruses (RNA viruses): strong activity

O=C1N[C@H]2[C@H](O)[C@H](O)[C@@H](O)C[C@@H]2c2cc3c(cc21)OCO3 (relative stereo) [1c, 7-deoxy-trans-dihydronarciclasine]
Aqueous Solubility 25° C. [1]: <1 mg/mL | GI50 Pancreas-a BXPC-3 (BXPC-3): 0.046 µg/mL (≈ 0.157 µM) | GI50 Breast MCF-7 (MCF-7): 0.034 µg/mL (≈ 0.116 µM) | GI50 CNS SF268 (SF268): 0.059 µg/mL (≈ 0.201 µM) | GI50 Lung-NSC NCI-H460 (NCI-H460): 0.043 µg/mL (≈ 0.147 µM) | GI50 Colon KM20L2 (KM20L2): 0.051 µg/mL (≈ 0.174 µM) | GI50 Prostate DU-145 (DU-145): 0.040 µg/mL (≈ 0.136 µM) | cancer cell growth inhibitory activity (in words) [2]: strong cancer cell growth inhibitory activity

O=C1N[C@H]2[C@@H]3OP(=O)([O-])O[C@@H]3[C@@H](O)C[C@@H]2c2cc3c(cc21)OCO3.[Li+] (relative stereo) [11a, Lithium 7-deoxy-trans-dihydro-narcistatin]
GI50 Pancreas-a BXPC-3 (BXPC-3): >1 µg/mL | GI50 Breast MCF-7 (MCF-7): >1 µg/mL | GI50 CNS SF268 (SF268): >1 µg/mL | GI50 Lung-NSC NCI-H460 (NCI-H460): >1 µg/mL | GI50 Colon KM20L2 (KM20L2): >1 µg/mL | GI50 Prostate DU-145 (DU-145): >1 µg/mL

O=C1N[C@H]2[C@@H]3OP(=O)([O-])O[C@@H]3[C@@H](O)C[C@@H]2c2cc3c(cc21)OCO3.[K+] (relative stereo) [11b, Potassium 7-deoxy-trans-dihydro-narcistatin]
GI50 Pancreas-a BXPC-3 (BXPC-3): >1 µg/mL | GI50 Breast MCF-7 (MCF-7): >1 µg/mL | GI50 CNS SF268 (SF268): >1 µg/mL | GI50 Lung-NSC NCI-H460 (NCI-H460): >1 µg/mL | GI50 Colon KM20L2 (KM20L2): >1 µg/mL | GI50 Prostate DU-145 (DU-145): >1 µg/mL

O=C1N[C@H]2[C@@H]3OP(=O)([O-])O[C@@H]3[C@@H](O)C[C@@H]2c2cc3c(c(O)c21)OCO3.[Li+] (relative stereo) [12a, Lithium trans-dihydro-narcistatin]
GI50 Pancreas-a BXPC-3 (BXPC-3): >1 µg/mL | GI50 Breast MCF-7 (MCF-7): >1 µg/mL | GI50 CNS SF268 (SF268): >1 µg/mL | GI50 Lung-NSC NCI-H460 (NCI-H460): >1 µg/mL | GI50 Colon KM20L2 (KM20L2): >1 µg/mL | GI50 Prostate DU-145 (DU-145): >1 µg/mL

O=C1N[C@H]2[C@@H]3OP(=O)([O-])O[C@@H]3[C@@H](O)C[C@@H]2c2cc3c(c(O)c21)OCO3.[K+] (relative stereo) [12b, Potassium trans-dihydro-narcistatin]
GI50 Pancreas-a BXPC-3 (BXPC-3): >1 µg/mL | GI50 Breast MCF-7 (MCF-7): 0.64 µg/mL | GI50 CNS SF268 (SF268): >1 µg/mL | GI50 Lung-NSC NCI-H460 (NCI-H460): >1 µg/mL | GI50 Colon KM20L2 (KM20L2): >1 µg/mL | GI50 Prostate DU-145 (DU-145): 0.54 µg/mL

O=C1N[C@H]2[C@@H]3OP(=O)([O-])O[C@@H]3[C@@H](O)C[C@@H]2c2cc3c(cc21)OCO3.[Na+] (relative stereo) [compound 11, Sodium 7-Deoxy-trans-dihydro-narcistatin]
GI50 Pancreas-a BXPC-3 (BXPC-3): >10 µg/mL | GI50 Breast MCF-7 (MCF-7): 7.2 µg/mL | GI50 CNS SF268 (SF268): >10 µg/mL | GI50 Lung-NSC NCI-H460 (NCI-H460): >10 µg/mL | GI50 Colon KM20L2 (KM20L2): >10 µg/mL | GI50 Prostate DU-145 (DU-145): >10 µg/mL

O=C1N[C@H]2[C@@H]3OP(=O)([O-])O[C@@H]3[C@@H](O)C[C@@H]2c2cc3c(c(O)c21)OCO3.[Na+] (relative stereo) [compound 12, Sodium trans-dihydro-narcistatin]
GI50 Pancreas-a BXPC-3 (BXPC-3): 5.6 µg/mL | GI50 Breast MCF-7 (MCF-7): 4.6 µg/mL | GI50 CNS SF268 (SF268): 8.8 µg/mL | GI50 Lung-NSC NCI-H460 (NCI-H460): 7.8 µg/mL | GI50 Colon KM20L2 (KM20L2): 9.6 µg/mL | GI50 Prostate DU-145 (DU-145): 5.2 µg/mL

O=C1N[C@@H]2C(=C[C@H](O)[C@@H](O)[C@H]2O)c2cc3c(cc21)OCO3 [2c, 7-deoxynarciclasine, reference compound]
Aqueous Solubility 25° C. [1]: <1 mg/mL | GI50 Pancreas-a BXPC-3 (BXPC-3): 0.070 µg/mL (≈ 0.24 µM) | GI50 Breast MCF-7 (MCF-7): 0.046 µg/mL (≈ 0.158 µM) | GI50 CNS SF268 (SF268): 0.120 µg/mL (≈ 0.412 µM) | GI50 Lung-NSC NCI-H460 (NCI-H460): 0.053 µg/mL (≈ 0.182 µM) | GI50 Colon KM20L2 (KM20L2): 0.084 µg/mL (≈ 0.288 µM) | GI50 Prostate DU-145 (DU-145): 0.051 µg/mL (≈ 0.175 µM)

O=C1NC2C(CC(O)C(O)C2O)c2cc3c(c(O)c21)OCO3 (stereo not drawn) [3a, cis-dihydronarciclasine, reference compound]
GI50 [3]: 3800 nM | activity against a range of RNA viruses (RNA viruses): completely inactive

O=C1N[C@@H]2C(=C[C@H](O)[C@H]3OP(=O)([O-])O[C@H]32)c2cc3c(cc21)OCO3.[Li+] [10a, Lithium 7-Deoxy-narcistatin]
GI50 Pancreas-a BXPC-3 (BXPC-3): >1 µg/mL | GI50 Breast MCF-7 (MCF-7): >1 µg/mL | GI50 CNS SF268 (SF268): >1 µg/mL | GI50 Lung-NSC NCI-H460 (NCI-H460): >1 µg/mL | GI50 Colon KM20L2 (KM20L2): >1 µg/mL | GI50 Prostate DU-145 (DU-145): >1 µg/mL

O=C1N[C@@H]2C(=C[C@H](O)[C@H]3OP(=O)([O-])O[C@H]32)c2cc3c(cc21)OCO3.[K+] [10b, Potassium 7-Deoxy-narcistatin]
GI50 Pancreas-a BXPC-3 (BXPC-3): >1 µg/mL | GI50 Breast MCF-7 (MCF-7): >1 µg/mL | GI50 CNS SF268 (SF268): >1 µg/mL | GI50 Lung-NSC NCI-H460 (NCI-H460): >1 µg/mL | GI50 Colon KM20L2 (KM20L2): >1 µg/mL | GI50 Prostate DU-145 (DU-145): >1 µg/mL

O=C1N[C@@H]2C(=C[C@H](O)[C@H]3OP(=O)([O-])O[C@H]32)c2cc3c(cc21)OCO3.[Na+] [compound 10, Sodium 7-Deoxy-narcistatin]
GI50 Pancreas-a BXPC-3 (BXPC-3): 5.3 µg/mL | GI50 Breast MCF-7 (MCF-7): 4.0 µg/mL | GI50 CNS SF268 (SF268): 6.3 µg/mL | GI50 Lung-NSC NCI-H460 (NCI-H460): 4.7 µg/mL | GI50 Colon KM20L2 (KM20L2): 5.6 µg/mL | GI50 Prostate DU-145 (DU-145): 3.9 µg/mL
